# Target: Aurora B/INCENP (Homo sapiens, UniProt Q96GD4)
# Assay: Determination of inhibition of AIK: Aurora B/INCENP direct fluorescence polarization (IMAP) assay
# Type: biochemical
# Settings: 10 uM ATP, 0.8 nM Aurora B/INCENP; values given as bins; read-out: IC50 of Exemplified Compounds Against AIK B
# Aurora B/INCENP, sequence (Q96GD4 whole entry): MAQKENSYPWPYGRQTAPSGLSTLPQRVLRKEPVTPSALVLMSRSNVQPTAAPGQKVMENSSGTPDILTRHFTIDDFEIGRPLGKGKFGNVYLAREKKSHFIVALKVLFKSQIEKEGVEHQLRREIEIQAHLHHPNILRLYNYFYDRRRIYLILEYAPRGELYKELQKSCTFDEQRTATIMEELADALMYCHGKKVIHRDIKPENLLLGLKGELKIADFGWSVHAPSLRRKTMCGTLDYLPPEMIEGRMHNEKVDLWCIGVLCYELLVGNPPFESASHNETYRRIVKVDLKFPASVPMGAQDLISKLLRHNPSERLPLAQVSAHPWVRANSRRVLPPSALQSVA
# Aurora B/INCENP, sequence (Q9NQS7 whole entry partner): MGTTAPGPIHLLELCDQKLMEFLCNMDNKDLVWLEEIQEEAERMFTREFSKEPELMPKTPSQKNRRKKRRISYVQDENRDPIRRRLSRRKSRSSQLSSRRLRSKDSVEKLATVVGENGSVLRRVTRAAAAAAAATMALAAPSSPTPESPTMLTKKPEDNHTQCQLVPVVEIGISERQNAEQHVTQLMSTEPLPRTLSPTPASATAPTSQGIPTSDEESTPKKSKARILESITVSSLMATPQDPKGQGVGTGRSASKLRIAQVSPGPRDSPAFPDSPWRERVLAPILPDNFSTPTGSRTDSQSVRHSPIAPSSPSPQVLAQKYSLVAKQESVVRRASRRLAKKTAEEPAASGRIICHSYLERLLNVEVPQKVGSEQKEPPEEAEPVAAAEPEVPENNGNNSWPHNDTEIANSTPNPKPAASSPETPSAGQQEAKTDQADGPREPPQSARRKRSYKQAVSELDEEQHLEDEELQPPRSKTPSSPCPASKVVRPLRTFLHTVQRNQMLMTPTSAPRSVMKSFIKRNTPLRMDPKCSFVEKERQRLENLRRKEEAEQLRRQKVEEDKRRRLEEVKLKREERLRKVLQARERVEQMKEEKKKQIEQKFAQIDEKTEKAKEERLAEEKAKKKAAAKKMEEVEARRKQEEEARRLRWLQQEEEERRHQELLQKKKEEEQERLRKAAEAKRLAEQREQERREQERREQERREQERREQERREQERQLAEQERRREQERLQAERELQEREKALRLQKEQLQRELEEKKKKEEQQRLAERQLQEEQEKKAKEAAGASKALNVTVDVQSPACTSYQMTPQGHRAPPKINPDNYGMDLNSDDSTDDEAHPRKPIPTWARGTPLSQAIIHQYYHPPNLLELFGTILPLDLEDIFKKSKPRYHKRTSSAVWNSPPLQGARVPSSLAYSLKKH
smiles,measurement,value
"COc1ccc(-c2cccc(S(=O)(=O)N3CCCC3)c2)c2c1[nH]c1ncc(C)cc12 [Compound 159, 8-methoxy-3-methyl-5-(3-(pyrrolidin-1-ylsulfonyl)phenyl)-9H-pyrido[2,3-b]indole]",IC50,8.6 to 13 nM
"COc1ccc(-c2cccc(S(=O)(=O)[C@@H]3CCNC3)c2)c2c1[nH]c1ncc(C)cc12 [Compound 160, (R)-8-methoxy-3-methyl-5-(3-(pyrrolidin-3-ylsulfonyl)phenyl)-9H-pyrido[2,3-b]indole]",IC50,5.6 to 8.5 nM
"COc1ccc(-c2cccc(NC(C)=O)c2)c2c1[nH]c1ncc(C)cc12 [Compound 162, N-(3-(8-methoxy-3-methyl-9H-pyrido[2,3-b]indol-5-yl)phenyl)acetamide]",IC50,5.6 to 8.5 nM
"COc1ccc(-c2cccc(NC(=O)C3CC3)c2)c2c1[nH]c1ncc(C)cc12 [Compound 163, N-(3-(8-methoxy-3-methyl-9H-pyrido[2,3-b]indol-5-yl)phenyl)cyclopropanecarboxamide]",IC50,8.6 to 13 nM
"COc1ccc(-c2cccc(C(=O)NC3CC3)c2)c2c1[nH]c1ncc(C)cc12 [Compound 164, N-cyclopropyl-3-(8-methoxy-3-methyl-9H-pyrido[2,3-b]indol-5-yl)benzamide]",IC50,5.6 to 8.5 nM
"CCN(CC)C(=O)c1cccc(-c2ccc(OC)c3[nH]c4ncc(C)cc4c23)c1 [Compound 165, N,N-diethyl-3-(8-methoxy-3-methyl-9H-pyrido[2,3-b]indol-5-yl)benzamide]",IC50,4 to 5.5 nM
"COc1ccc(-c2ccc3c(c2)OCO3)c2c1[nH]c1ncc(C)cc12 [Compound 166, 5-(benzo[d][1,3]dioxol-5-yl)-8-methoxy-3-methyl-9H-pyrido[2,3-b]indole]",IC50,> 13 nM
"COc1ccc(-c2cccc(C(=O)NCCO)c2)c2c1[nH]c1ncc(C)cc12 [Compound 168, N-(2-hydroxyethyl)-3-(8-methoxy-3-methyl-9H-pyrido[2,3-b]indol-5-yl)benzamide]",IC50,8.6 to 13 nM
"CCNS(=O)(=O)c1cccc(-c2ccc(OC)c3[nH]c4ncc(C)cc4c23)c1 [Compound 170, N-ethyl-3-(8-methoxy-3-methyl-9H-pyrido[2,3-b]indol-5-yl)benzenesulfonamide]",IC50,< 4 nM
"CCOc1ccc(-c2cccc(S(=O)(=O)CC)c2)c2c1[nH]c1ncc(C)cc12 [Compound 171, 8-ethoxy-5-(3-(ethylsulfonyl)phenyl)-3-methyl-9H-pyrido[2,3-b]indole]",IC50,5.6 to 8.5 nM
"CCS(=O)(=O)c1cccc(-c2ccc(OC(F)F)c3[nH]c4ncc(C)cc4c23)c1 [Compound 172, 8-(difluoromethoxy)-5-(3-(ethylsulfonyl)phenyl)-3-methyl-9H-pyrido[2,3-b]indole]",IC50,5.6 to 8.5 nM
"CCS(=O)(=O)c1cccc(-c2ccc(OCC(F)(F)F)c3[nH]c4ncc(C)cc4c23)c1 [Compound 173, 5-(3-(ethylsulfonyl)phenyl)-3-methyl-8-(2,2,2-trifluoroethoxy)-9H-pyrido[2,3-b]indole]",IC50,5.6 to 8.5 nM
"CCS(=O)(=O)c1cccc(-c2ccc(OCC3CCN(C)CC3)c3[nH]c4ncc(C)cc4c23)c1 [Compound 177, 5-(3-(ethylsulfonyl)phenyl)-3-methyl-8-((1-methylpiperidin-4-yl)methoxy)-9H-pyrido[2,3-b]indole]",IC50,8.6 to 13 nM
"Cc1cnc2[nH]c3c(OCC4CCN(C)CC4)ccc(-c4cccc(C(=O)NC5CC5)c4)c3c2c1 [Compound 178, N-cyclopropyl-3-(3-methyl-8-((1-methylpiperidin-4-yl)methoxy)-9H-pyrido[2,3-b]indol-5-yl)benzamide]",IC50,> 13 nM
"Cc1cnc2[nH]c3c(OCC4CCN(C)CC4)ccc(-c4cccc(S(=O)(=O)C5CC5)c4)c3c2c1 [Compound 179, 5-(3-(cyclopropylsulfonyl)phenyl)-3-methyl-8-((1-methylpiperidin-4-yl)methoxy)-9H-pyrido[2,3-b]indole]",IC50,5.6 to 8.5 nM
"CNS(=O)(=O)c1cccc(-c2ccc(OCC3CCN(C)CC3)c3[nH]c4ncc(C)cc4c23)c1 [Compound 180, N-methyl-3-(3-methyl-8-((1-methylpiperidin-4-yl)methoxy)-9H-pyrido[2,3-b]indole-5-yl)benzenesulfonamide]",IC50,8.6 to 13 nM
"Cc1cnc2[nH]c3c(OCC4CCN(C)CC4)ccc(-c4cccc(S(=O)(=O)N(C)C)c4)c3c2c1 [Compound 181, N,N-dimethyl-3-(3-methyl-8-((1-methylpiperidin-4-yl)methoxy)-9H-pyrido[2,3-b]indole-5-yl)benzenesulfonamide]",IC50,8.6 to 13 nM
"Cc1cnc2[nH]c3c(OCC4CCN(C)CC4)ccc(-c4cccc(NC(=O)C5CC5)c4)c3c2c1 [Compound 182, N-(3-(3-methyl-8-((1-methylpiperidin-4-yl)methoxy)-9H-pyrido[2,3-b]indol-5-yl)phenyl)cyclopropanecarboxamide]",IC50,5.6 to 8.5 nM
CCSc1cccc(-c2ccc(OCC3CCN(C)CC3)c3[nH]c4ncc(C)cc4c23)c1 [Compound 183],IC50,> 13 nM
"CCOc1cccc(-c2ccc(OCC3CCN(C)CC3)c3[nH]c4ncc(C)cc4c23)c1 [Compound 184, 5-(3-ethoxyphenyl)-3-methyl-8-((1-methylpiperidin-4-yl)methoxy)-9H-pyrido[2,3-b]indole]",IC50,> 13 nM
"CCS(=O)(=O)c1cccc(-c2ccc(OCC3CCNCC3)c3[nH]c4ncc(C)cc4c23)c1 [Compound 185, 5-(3-(ethylsulfonyl)phenyl)-3-methyl-8-(piperidin-4-ylmethoxy)-9H-pyrido[2,3-b]indole]",IC50,4 to 5.5 nM
"CCS(=O)(=O)c1cccc(-c2ccc(OC[C@H]3CCN(C)C3)c3[nH]c4ncc(C)cc4c23)c1 [Compound 186, (S)-5-(3-(ethylsulfonyl)phenyl)-3-methyl-8-((1-methylpyrrolidin-3-yl)methoxy)-9H-pyrido[2,3-b]indole]",IC50,> 13 nM
"CCS(=O)(=O)c1cccc(-c2ccc(OC[C@@H]3CCN(C)C3)c3[nH]c4ncc(C)cc4c23)c1 [Compound 187, (R)-5-(3-(ethylsulfonyl)phenyl)-3-methyl-8-((1-methylpyrrolidin-3-yl)methoxy)-9H-pyrido[2,3-b]indole]",IC50,> 13 nM
"CCS(=O)(=O)c1cccc(-c2ccc(OC[C@@H]3CCCN3C)c3[nH]c4ncc(C)cc4c23)c1 [Compound 188, (S)-5-(3-(ethylsulfonyl)phenyl)-3-methyl-8-((1-methylpyrrolidin-2-yl)methoxy)-9H-pyrido[2,3-b]indole]",IC50,8.6 to 13 nM
"CCS(=O)(=O)c1cccc(-c2ccc(OC[C@H]3CCNC3)c3[nH]c4ncc(C)cc4c23)c1 [Compound 189, (S)-5-(3-(ethylsulfonyl)phenyl)-3-methyl-8-(pyrrolidin-3-ylmethoxy)-9H-pyrido[2,3-b]indole]",IC50,8.6 to 13 nM
"CCS(=O)(=O)c1cccc(-c2ccc(OC[C@@H]3CCNC3)c3[nH]c4ncc(C)cc4c23)c1 [Compound 190, (R)-5-(3-(ethylsulfonyl)phenyl)-3-methyl-8-(pyrrolidin-3-ylmethoxy)-9H-pyrido[2,3-b]indole]",IC50,> 13 nM
"Cc1cnc2[nH]c3c(OCCCN(C)C)ccc(-c4cccc(S(=O)(=O)C5CC5)c4)c3c2c1 [Compound 194, 3-(5-(3-(cyclopropylsulfonyl)phenyl)-3-methyl-9H-pyrido[2,3-b]indol-8-yloxy)-N,N-dimethylpropan-1-amine]",IC50,4 to 5.5 nM
"Cc1cnc2[nH]c3c(OCCCN(C)C)ccc(-c4cccc(NC(=O)C5CC5)c4)c3c2c1 [Compound 195, N-(3-(8-(3-(dimethylamino)propoxy)-3-methyl-9H-pyrido[2,3-b]indol-5-yl)phenyl)cyclopropanecarboxamide]",IC50,> 13 nM
"CCS(=O)(=O)c1cccc(-c2ccc(OCC3CCN(C)CC3)c3[nH]c4ncc(Cl)cc4c23)c1 [Compound 200, 3-chloro-5-(3-(ethylsulfonyl)phenyl)-8-((1-methylpiperidin-4-yl)methoxy)-9H-pyrido[2,3-b]indole]",IC50,5.6 to 8.5 nM
"CCS(=O)(=O)c1cccc(-c2ccc(OCC3CCNCC3)c3[nH]c4ncc(Cl)cc4c23)c1 [Compound 201, 3-chloro-5-(3-(ethylsulfonyl)phenyl)-8-(piperidin-4-ylmethoxy)-9H-pyrido[2,3-b]indole]",IC50,< 4 nM
"CCS(=O)(=O)c1cccc(-c2ccc(OCC3CCN(C)CC3)c3[nH]c4ncc(C(F)(F)F)cc4c23)c1 [Compound 202, 5-(3-(ethylsulfonyl)phenyl)-8-((1-methylpiperidin-4-yl)methoxy)-3-(trifluoromethyl)-9H-pyrido[2,3-b]indole]",IC50,8.6 to 13 nM
"CCS(=O)(=O)c1cccc(-c2ccc(OCC3CCN(C)CC3)c3[nH]c4ncc(C#N)cc4c23)c1 [Compound 203, 5-(3-(ethylsulfonyl)phenyl)-8-((1-methylpiperidin-4-yl)methoxy)-9H-pyrido[2,3-b]indole-3-carbonitrile]",IC50,5.6 to 8.5 nM
"CCS(=O)(=O)c1cccc(-c2cc(F)c(OCCN(C)C)c3[nH]c4ncc(C)cc4c23)c1 [Compound 204, 2-(5-(3-(ethylsulfonyl)phenyl)-7-fluoro-3-methyl-9H-pyrido[2,3-b]indol-8-yloxy)-N,N-dimethylethanamine]",IC50,8.6 to 13 nM
"CCS(=O)(=O)c1cccc(-c2cc(F)c(OCCCN(C)C)c3[nH]c4ncc(Cl)cc4c23)c1 [Compound 205, 3-(3-chloro-5-(3-(ethylsulfonyl)phenyl)-7-fluoro-9H-pyrido[2,3-b]indol-8-yloxy)-N,N-dimethylpropan-1-amine]",IC50,< 4 nM
"CCS(=O)(=O)c1cccc(-c2ccc(OCCCN(C)C)c3[nH]c4ncc(C)cc4c23)c1 [Compound 206, 3-(5-(3-(ethylsulfonyl)phenyl)-3-methyl-9H-pyrido[2,3-b]indol-8-yloxy)-N,N-dimethylpropan-1-amine]",IC50,4 to 5.5 nM
"CCS(=O)(=O)c1cccc(-c2ccc(OCCN(C)C)c3[nH]c4ncc(C)cc4c23)c1 [Compound 207, 2-(5-(3-(ethylsulfonyl)phenyl)-3-methyl-9H-pyrido[2,3-b]indol-8-yloxy)-N,N-dimethylethanamine]",IC50,> 13 nM
"CCS(=O)(=O)c1cccc(-c2ccc(OCCOC)c3[nH]c4ncc(C)cc4c23)c1 [Compound 208, 5-(3-(ethylsulfonyl)phenyl)-8-(2-methoxyethoxy)-3-methyl-9H-pyrido[2,3-b]indole]",IC50,8.6 to 13 nM

# From patent US20090312288A1 (TAKEDA PHARMACEUTICAL COMPANY LIMITED, priority 2008, published 2009)
